Consider four compounds from US10202406B2, “Boron cluster compounds and uses thereof” (priority 2011, dated 2019).

Entries after “also recorded” stand apart in the source; their conditions may differ.

In assay [1] the test system is mice. Kind of assay: Motor deficit testing, inverted screen test after injection. The note with it: sensory block (hot plate) versus motor block (inverted screen test).
Procedure: Motor function was tested by observing the ability of the mice to walk hanging upside down from a screen, termed the inverted screen test.
The target of assay [2] is T1, Nav1.2 voltage gated sodium channels (Homo sapiens, UniProt Q99250).
T1 construct: expressed in transfected cells; host or cells: Xenopus oocytes
Kind of assay: Two electrode voltage clamp electrophysiology of voltage gated sodium channels expressed in Xenopus oocytes. It counts as cell-based. The note with it: 0.3 mM in superfusate for two minutes then washed out; holding potential -50 mV; Nav1.2 in Xenopus oocytes. On the procedure:
Nav1.2 voltage gated sodium channels were expressed in Xenopus oocytes and standard two electrode voltage clamp techniques were used to measure ionic currents through the channels after depolarizations from a holding potential of −50 mV. The test drugs, all at a concentration of 0.3 mM, were added to the superfusate for two minutes as indicated by the black bars and then washed out. […] Data are expressed as means±standard error of the mean and n equals the number of cells used in FIG. 4 (a)-(d).

In assay [3] the test system is mice. Kind of assay: Hot plate paw withdrawal latency after injection into a hind limb near the sciatic nerve. To be noted: 50 microliters of 10 mM injected into hind limb near sciatic nerve, 55° C. hot plate, about 30 min. It counts as in vivo. How it is done:
The test drugs, all at a volume of 50 microliters and a concentration of 10 mM, were injected into a hind limb near the sciatic nerve. The time it takes for the animals to withdraw the foot of the injected limb from touching a 55° C. hot plate is measured in seconds. This time is termed the paw withdrawal latency and is measured over about a 30 min time period. Data are expressed as means±standard error of the mean and n equals the number of animals used in FIG. 5(a)-(d).

T1 sequence (Q99250 whole entry): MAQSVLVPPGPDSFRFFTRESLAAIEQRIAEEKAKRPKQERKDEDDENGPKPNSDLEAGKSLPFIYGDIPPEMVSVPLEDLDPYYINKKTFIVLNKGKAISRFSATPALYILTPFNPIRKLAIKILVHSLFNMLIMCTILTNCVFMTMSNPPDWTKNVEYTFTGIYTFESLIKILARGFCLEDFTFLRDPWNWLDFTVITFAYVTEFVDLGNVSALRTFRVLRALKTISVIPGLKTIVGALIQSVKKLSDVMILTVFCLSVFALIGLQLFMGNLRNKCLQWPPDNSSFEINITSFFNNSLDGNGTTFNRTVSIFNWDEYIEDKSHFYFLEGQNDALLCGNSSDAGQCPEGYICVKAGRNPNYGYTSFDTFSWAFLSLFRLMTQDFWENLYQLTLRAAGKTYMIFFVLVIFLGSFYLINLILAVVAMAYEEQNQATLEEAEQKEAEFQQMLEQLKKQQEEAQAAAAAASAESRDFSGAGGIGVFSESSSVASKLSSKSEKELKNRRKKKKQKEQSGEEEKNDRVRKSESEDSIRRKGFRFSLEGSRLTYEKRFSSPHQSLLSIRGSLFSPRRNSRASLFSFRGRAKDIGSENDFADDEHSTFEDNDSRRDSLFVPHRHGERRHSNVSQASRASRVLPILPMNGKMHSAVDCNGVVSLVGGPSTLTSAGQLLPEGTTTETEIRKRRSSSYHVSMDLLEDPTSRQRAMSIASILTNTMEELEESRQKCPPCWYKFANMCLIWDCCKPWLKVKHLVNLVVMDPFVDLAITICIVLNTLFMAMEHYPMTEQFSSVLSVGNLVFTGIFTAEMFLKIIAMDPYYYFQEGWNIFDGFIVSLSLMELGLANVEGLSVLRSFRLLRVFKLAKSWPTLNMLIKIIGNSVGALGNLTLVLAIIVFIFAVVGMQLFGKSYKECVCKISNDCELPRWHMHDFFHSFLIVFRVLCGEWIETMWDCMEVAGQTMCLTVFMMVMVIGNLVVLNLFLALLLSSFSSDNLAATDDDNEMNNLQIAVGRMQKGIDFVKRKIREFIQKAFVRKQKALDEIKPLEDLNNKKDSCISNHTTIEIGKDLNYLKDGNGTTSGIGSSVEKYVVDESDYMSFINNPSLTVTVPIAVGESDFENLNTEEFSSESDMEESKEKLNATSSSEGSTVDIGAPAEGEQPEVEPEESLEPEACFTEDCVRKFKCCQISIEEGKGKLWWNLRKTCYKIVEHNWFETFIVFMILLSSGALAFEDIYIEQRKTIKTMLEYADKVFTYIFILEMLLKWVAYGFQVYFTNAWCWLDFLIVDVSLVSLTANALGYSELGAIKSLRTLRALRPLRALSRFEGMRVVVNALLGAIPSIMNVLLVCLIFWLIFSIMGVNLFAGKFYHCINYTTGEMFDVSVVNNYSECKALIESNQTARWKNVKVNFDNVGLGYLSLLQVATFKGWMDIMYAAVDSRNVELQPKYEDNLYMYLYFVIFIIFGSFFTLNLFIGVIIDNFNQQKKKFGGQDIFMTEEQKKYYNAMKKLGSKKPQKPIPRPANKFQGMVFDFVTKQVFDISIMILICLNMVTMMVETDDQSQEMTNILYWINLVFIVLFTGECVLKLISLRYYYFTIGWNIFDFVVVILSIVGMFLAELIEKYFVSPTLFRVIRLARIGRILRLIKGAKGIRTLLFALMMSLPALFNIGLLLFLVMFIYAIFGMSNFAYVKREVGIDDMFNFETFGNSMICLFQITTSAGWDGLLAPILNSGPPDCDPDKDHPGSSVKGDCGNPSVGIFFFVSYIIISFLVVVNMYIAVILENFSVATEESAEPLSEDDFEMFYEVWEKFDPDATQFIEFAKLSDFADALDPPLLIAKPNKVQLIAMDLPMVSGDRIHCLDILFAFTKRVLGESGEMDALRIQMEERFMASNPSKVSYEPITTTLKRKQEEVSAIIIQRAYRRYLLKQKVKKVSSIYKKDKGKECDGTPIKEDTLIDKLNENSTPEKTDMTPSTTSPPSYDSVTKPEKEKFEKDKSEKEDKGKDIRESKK

For “2-Diethylaminoacetamido-1,12-closo-carborane [p-carborane lidocaine]”, in the assay on mice [1], the “selectivity of block of sensory nerves over motor nerves” value is “selectively blocked sensory nerves over motor nerves; also recorded: selective block of sensory nerves over motor nerves”. Further, in assay [2], the “block of voltage gated sodium channels (ionic currents)” value (from here on “block of voltage gated sodium channels”) is listed as “block voltage gated sodium channels in a reversible manner”. The “analgesia / sensory block (paw withdrawal latency)” value (shortened to “analgesia / sensory block”) with mice [3] was “provide analgesia”.

As for `CCN(CC)CC(=O)Nc1c(C)cccc1C` [lidocaine, reference compound], the “block of voltage gated sodium channels” value in assay [2] is “block voltage gated sodium channels in a reversible manner”. Further, the “analgesia / sensory block” value in the assay on mice [3] is “provide analgesia”.

For the compound “3-Diethylaminoacetamido-1,2-closo-carborane [o-carborane lidocaine]”, the “selectivity of block of sensory nerves over motor nerves” value in the assay on mice [1] was “selectively blocked sensory nerves over motor nerves; also recorded: selective block of sensory nerves over motor nerves”. In addition, the “block of voltage gated sodium channels” value in assay [2] is “block voltage gated sodium channels in a reversible manner”. Besides, the “analgesia / sensory block” value in the assay with mice [3] is “provide analgesia”.

“9-Diethylaminoacetamido-1,7-closo-carborane [m-carborane lidocaine]”: the “block of voltage gated sodium channels” value in assay [2] was “block voltage gated sodium channels in a reversible manner”. The “analgesia / sensory block” value in the assay with mice [3] is “did not provide analgesia; also recorded: neither motor nor sensory block”.
